Reference: ChEMBL document CHEMBL6120978, “Anticancer activity of salinomycin quaternary phosphonium salts” (Eur J Med Chem, 2025)
The source made the active and inactive calls. The calls are words filed in the database; no cut-off is given here.

Columns and labels:
SW-620 = test: Cytotoxicity against human SW620 cells incubated for 72 hrs by MTT assay; type: functional, cell-based; settings: SW-620, 72 h
PC-3 = test: Cytotoxicity against human PC-3 cells incubated for 72 hrs by MTT assay; type: functional, cell-based; settings: PC-3, 72 h
MDA-MB-231 [1] = test: Cytotoxicity against human MDA-MB-231 cells incubated for 72 hrs by MTT assay; type: functional, cell-based; settings: MDA-MB-231, 72 h
A549 [2] = test: Cytotoxicity against human A549 cells incubated for 72 hrs by MTT assay; type: functional, cell-based; settings: A549, 72 h
[3] = Selectivity index, ratio of IC50 for cytotoxicity against human HaCaT cells to IC50 for cytotoxicity against human SW480 cells; type: toxicity, cell-based; settings: HaCaT cells versus SW480 cells, read-out: Ratio IC50
[4] = Selectivity index, ratio of IC50 for cytotoxicity against human HaCaT cells to IC50 for cytotoxicity against human SW620 cells; type: toxicity, cell-based; settings: HaCaT cells versus SW620 cells, read-out: Ratio IC50
[5] = Selectivity index, ratio of IC50 for cytotoxicity against human HaCaT cells to IC50 for cytotoxicity against human PC-3 cells; type: toxicity, cell-based; settings: HaCaT cells versus PC-3 cells, read-out: Ratio IC50
[6] = Selectivity index, ratio of IC50 for cytotoxicity against human HaCaT cells to IC50 for cytotoxicity against human MDA-MB-231 cells; type: toxicity, cell-based; settings: HaCaT cells versus MDA-MB-231 cells, read-out: Ratio IC50
[7] = Selectivity index, ratio of IC50 for cytotoxicity against human HaCaT cells to IC50 for cytotoxicity against human A549 cells; type: toxicity, cell-based; settings: HaCaT cells versus A549 cells, read-out: Ratio IC50
[8] = Selectivity index, ratio of IC50 for cytotoxicity against chinese hamster V79 cells to IC50 for cytotoxicity against human MDA-MB-231 cells; type: toxicity, cell-based; settings: V79 cells versus MDA-MB-231 cells, read-out: Ratio IC50
[9] = Selectivity index, ratio of IC50 for cytotoxicity against chinese hamster V79 cells to IC50 for cytotoxicity against human A549 cells; type: toxicity, cell-based; settings: V79 cells versus A549 cells, read-out: Ratio IC50
A549 [10] = test: Effect on mitochondrial mass in human A549 cells assessed as increase in MTGreen positive cells at IC50 incubated for 48 hrs by MitoTracker Green FM staining based flow cytometry analysis relative to control; type: functional
MDA-MB-231 [11] = test: Effect on mitochondrial mass in human MDA-MB-231 cells assessed as increase in MTGreen positive cells at IC50 incubated for 48 hrs by MitoTracker Green FM staining based flow cytometry analysis relative to control; type: functional
A549 [12] = test: Effect on mitochondrial function in human A549 cells assessed as fold increase in mean fluorescence intensity at IC50 incubated for 48 hrs by MitoTracker Red CMXRos staining based flow cytometry analysis relative to control; type: functional
MDA-MB-231 [13] = test: Effect on mitochondrial function in human MDA-MB-231 cells assessed as fold increase in mean fluorescence intensity at IC50 incubated for 48 hrs by MitoTracker Red CMXRos staining based flow cytometry analysis relative to control; type: functional
A549 [14] = test: Effect on mitochondrial function in human A549 cells assessed as increase in MTRed CMXRos positive cells at IC50 incubated for 48 hrs by MitoTracker Red CMXRos staining based flow cytometry analysis relative to control; type: functional
MDA-MB-231 [15] = test: Effect on mitochondrial function in human MDA-MB-231 cells assessed as increase in MTRed CMXRos positive cells at IC50 incubated for 48 hrs by MitoTracker Red CMXRos staining based flow cytometry analysis relative to control; type: functional
Mitochondrial membrane [16] = test: Induction of mitochondrial membrane potential loss in human A549 cells assessed as green fluorescence at IC50 incubated for 48 hrs MitoTracker Green FM staining based flow cytometry analysis (reference value: 8.93 %); type: cell membranes
A549 [17] = test: Induction of cell cycle arrest in human A549 cells assessed as accumulation of cells at G0/G1 phase at IC50 incubated for 24 hrs by propidium iodide staining based flow cytometry analysis (reference value: 54.3 %); type: functional
A549 [18] = test: Induction of cell cycle arrest in human A549 cells assessed as accumulation of cells at G2 phase at IC50 incubated for 24 hrs by propidium iodide staining based flow cytometry analysis (reference value: 20.8 %); type: functional
MDA-MB-231 [19] = test: Induction of cell cycle arrest in human […] cells assessed as accumulation of cells at G0/G1 phase at IC50 incubated for 24 hrs by propidium iodide staining based flow cytometry analysis (reference value: 50.9 %); type: functional
MDA-MB-231 [20] = test: Induction of cell cycle arrest in human […] cells assessed as accumulation of cells at S phase at IC50 incubated for 24 hrs by propidium iodide staining based flow cytometry analysis; type: functional
MDA-MB-231 [21] = test: Induction of cell cycle arrest in human […] cells assessed as accumulation of cells at G2 phase at IC50 incubated for 24 hrs by propidium iodide staining based flow cytometry analysis; type: functional
A549 [22] = test: Induction of apoptosis in human A549 cells assessed as early apoptotic cells at IC50 incubated for 72 hrs by Annexin V-FITC staining based flow cytometry analysis (reference value: 1.68 %); type: functional
A549 [23] = test: Induction of apoptosis in human A549 cells assessed as necrotic cells at IC50 incubated for 72 hrs by Annexin V-FITC staining based flow cytometry analysis (reference value: 0.97 %); type: functional
MDA-MB-231 [24] = test: Induction of apoptosis in human MDA-MB-231 cells assessed as viable cells at IC50 incubated for 72 hrs by Annexin V-FITC staining based flow cytometry analysis (reference value: 91.53 %); type: functional
MDA-MB-231 [25] = test: Induction of apoptosis in human MDA-MB-231 cells assessed as early apoptotic cells at IC50 incubated for 72 hrs by Annexin V-FITC staining based flow cytometry analysis (reference value: 4.23 %); type: functional
MDA-MB-231 [26] = test: Induction of apoptosis in human MDA-MB-231 cells assessed as late apoptotic cells at IC50 incubated for 72 hrs by Annexin V-FITC staining based flow cytometry analysis (reference value: 3.07 %); type: functional
Mitochondrial membrane [27] = test: Induction of mitochondrial membrane potential loss in human MDA-MB-231 cells assessed as red fluorescence at IC50 incubated for 48 hrs MitoTrackerRed CMXRos staining based flow cytometry analysis (reference value: 91.1 %); type: cell membranes
Mitochondrial membrane [28] = test: Induction of mitochondrial membrane potential loss in human A549 cells assessed as red fluorescence at IC50 incubated for 48 hrs MitoTrackerRed CMXRos staining based flow cytometry analysis (reference value: 91.1 %); type: cell membranes
Staphylococcus aureus [29] = test: Antimicrobial activity against Staphylococcus aureus NCTC 4163 incubated for 18 hrs by twofold microdilution method; type: functional
Staphylococcus aureus [30] = test: Antimicrobial activity against Staphylococcus aureus ATCC 6538 incubated for 18 hrs by twofold microdilution method; type: functional
Staphylococcus aureus [31] = test: Antimicrobial activity against Staphylococcus aureus ATCC 29213 incubated for 18 hrs by twofold microdilution method; type: functional
[32] = system: Staphylococcus epidermidis; test: Antimicrobial activity against Staphylococcus epidermidis ATCC 12228 incubated for 18 hrs by twofold microdilution method; type: functional
Escherichia coli = test: Antimicrobial activity against Escherichia coli ATCC 25922 incubated for 18 hrs by twofold microdilution method; type: functional
Pseudomonas aeruginosa = test: Antimicrobial activity against Pseudomonas aeruginosa ATCC 15442 incubated for 18 hrs by twofold microdilution method; type: functional

Activity (Mitochondrial membrane [16])	SMILES	IC50 (SW-620)	IC50 (PC-3)	IC50 (MDA-MB-231 [1])	IC50 (A549 [2])	selectivity ratio [3]	selectivity ratio [4]	selectivity ratio [5]	selectivity ratio [6]	selectivity ratio [7]	selectivity ratio [8]	selectivity ratio [9]	Activity (A549 [10])	Activity (MDA-MB-231 [11])	fold change (FC) (A549 [12])	fold change (FC) (MDA-MB-231 [13])	Activity (A549 [14])	Activity (MDA-MB-231 [15])	Activity (A549 [17])	Activity (A549 [18])	further results
32.5%	CCCC[P+](CCCC)(CCCC)CCCCOC(=O)[C@H](CC)[C@H]1CC[C@H](C)[C@H]([C@@H](C)[C@H](O)[C@H](C)C(=O)[C@H](CC)[C@H]2O[C@]3(C=C[C@@H](O)[C@]4(CC[C@@](C)([C@H]5CC[C@](O)(CC)[C@H](C)O5)O4)O3)[C@H](C)C[C@@H]2C)O1.[Br-]	520 nM	1450 nM	900 nM	860 nM	1.4	1.3	0.5	0.8	0.8	0.7	0.7	70%	90%	3	5	50%	90%	Active	Active	Activity (MDA-MB-231 [19]): 76.2%; Activity (MDA-MB-231 [20]): inactive; Activity (MDA-MB-231 [21]): inactive; Activity (A549 [22]): 52.57%; Activity (A549 [23]): 12.94%; Activity (MDA-MB-231 [24]): 33.55%; Activity (MDA-MB-231 [25]): 39.5%; Activity (MDA-MB-231 [26]): 21.8%; Activity (Mitochondrial membrane [27]): 29.4%; Activity (Mitochondrial membrane [28]): 67.3%; MIC (Staphylococcus aureus [29]): 2 µg/mL; MIC (Staphylococcus aureus [30]): 2 µg/mL; MIC (Staphylococcus aureus [31]): 2 µg/mL; MIC [32]: 2 µg/mL; MIC (Escherichia coli): > 256 µg/mL; MIC (Pseudomonas aeruginosa): > 256 µg/mL
41.7%	CC[C@@H](C(=O)[C@@H](C)[C@@H](O)[C@H](C)[C@@H]1O[C@@H]([C@@H](CC)C(=O)OCCCC[P+](c2ccccc2)(c2ccccc2)c2ccccc2)CC[C@@H]1C)[C@H]1O[C@]2(C=C[C@@H](O)[C@]3(CC[C@@](C)([C@H]4CC[C@](O)(CC)[C@H](C)O4)O3)O2)[C@H](C)C[C@@H]1C.[Br-]	140 nM	1350 nM	740 nM	670 nM	3.2	8.8	0.9	1.7	1.8	0.2	0.2	70%	90%	3	3	50%	50%	68.5%	12%	Activity (MDA-MB-231 [19]): 77.7%; Activity (MDA-MB-231 [20]): inactive; Activity (MDA-MB-231 [21]): inactive; Activity (A549 [22]): 59.17%; Activity (A549 [23]): 2.13%; Activity (MDA-MB-231 [24]): 51.49%; Activity (MDA-MB-231 [25]): 27.96%; Activity (MDA-MB-231 [26]): 15.32%; Activity (Mitochondrial membrane [27]): 39.1%; Activity (Mitochondrial membrane [28]): 58.3%; MIC (Staphylococcus aureus [29]): 2 µg/mL; MIC (Staphylococcus aureus [30]): 1 µg/mL; MIC (Staphylococcus aureus [31]): 1 µg/mL; MIC [32]: 2 µg/mL; MIC (Escherichia coli): 256 µg/mL; MIC (Pseudomonas aeruginosa): 256 µg/mL
